What was measured:
[1] = test system: PR8; type: cell-based, PR8 influenza A virus
[2] = test system: PR8-infected RAW264.7 cells; type: cell-based; conditions: RAW264.7 cells stably overexpressing EPRS vs empty vector

## EPRS: glutamyl-prolyl-tRNA synthetase protein, 1512 aa, SEQ ID NO: 63; expressed from plasmid or purified
[1]
  viral replication following infection with PR8: significantly less viral replication
[2]
  IFN-β production following infection with PR8: more production of IFN-β and IL-6
  IL-6 production following infection with PR8: more production of IFN-β and IL-6

From patent publication US11173192B2 (priority 2016, dated 2021)
